What was measured:
Format in all cases: in vivo
corn (Zea mays) = assay: Test A postemergence, corn; conditions: postemergence, 0 to 100 scale, 0 is no effect, 100 is complete control, approximately 10 days
In short: (§1)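 Plants grown in pots of loam blended with sand were treated either before emergence, via directed soil spray, or after emergence at the one- to two-leaf stage. Following about 10 days in the greenhouse, each treatment was visually compared with untreated controls and rated from 0 (no effect) to 100 (complete control).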

[1] = test system: barnyardgrass (Echinochloa crus-galli); assay: Test A postemergence, barnyardgrass; conditions: postemergence, 0 to 100 scale, 0 is no effect, 100 is complete control, approximately 10 days
In short: as §1

[2] = test system: pigweed (Amaranthus retroflexus); assay: Test A postemergence, pigweed; conditions: postemergence, 0 to 100 scale, 0 is no effect, 100 is complete control, approximately 10 days
In short: as §1

[3] = test system: ryegrass, Italian (Italian ryegrass, Lolium multiflorum); assay: Test A postemergence, Italian ryegrass; conditions: postemergence, 0 to 100 scale, 0 is no effect, 100 is complete control, approximately 10 days
In short: as §1

kochia (Kochia scoparia) [4] = assay: Test A preemergence, kochia; conditions: Preemergence, 0 to 100 scale (0 no effect, 100 complete control)
In short: as §1

[5] = test system: barnyardgrass (Echinochloa crus-galli); assay: Test A preemergence, barnyardgrass; conditions: Preemergence, 0 to 100 scale (0 no effect, 100 complete control)
In short: as §1

[6] = test system: barnyardgrass (Echinochloa crus-galli); assay: Test B flooded paddy test, barnyardgrass; conditions: 250 g ai/ha, Flood; visual rating after 13 to 15 days; scale 0 to 100, 0 is no effect, 100 is complete control
In short: (§2)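 2-leaf plants; flood to 3 cm, dose into water, hold depth; greenhouse 13–15 d; visual score 0–100 vs controls; dash = not tested.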

[7] = test system: ragweed (common ragweed, Ambrosia elatior); assay: Test A postemergence, ragweed; conditions: postemergence, 0 to 100 scale, 0 is no effect, 100 is complete control, approximately 10 days
In short: as §1

[8] = test system: foxtail, giant (giant foxtail, Setaria faberii); assay: Test A postemergence, giant foxtail; conditions: postemergence, 0 to 100 scale, 0 is no effect, 100 is complete control, approximately 10 days
In short: as §1

[9] = test system: ragweed (common ragweed, Ambrosia elatior); assay: Test A preemergence, ragweed; conditions: Preemergence, 0 to 100 scale (0 no effect, 100 complete control)
In short: as §1

[10] = test system: pigweed (Amaranthus retroflexus); assay: Test A preemergence, pigweed; conditions: Preemergence, 0 to 100 scale (0 no effect, 100 complete control)
In short: as §1

[11] = test system: foxtail, giant (giant foxtail, Setaria faberii); assay: Test A preemergence, giant foxtail; conditions: Preemergence, 0 to 100 scale (0 no effect, 100 complete control)
In short: as §1

[12] = test system: ducksalad (Heteranthera limosa); assay: Test B flooded paddy test, ducksalad; conditions: 250 g ai/ha, Flood; visual rating after 13 to 15 days; scale 0 to 100, 0 is no effect, 100 is complete control
In short: as §2

[13] = test system: galium (catchweed bedstraw, Galium aparine); assay: Test A postemergence, galium; conditions: postemergence, 0 to 100 scale, 0 is no effect, 100 is complete control, approximately 10 days
In short: as §1

[14] = test system: sedge, umbrella (small-flower umbrella sedge, Cyperus difformis); assay: Test B flooded paddy test, umbrella sedge; conditions: 250 g ai/ha, Flood; visual rating after 13 to 15 days; scale 0 to 100, 0 is no effect, 100 is complete control
In short: as §2

kochia (Kochia scoparia) [15] = assay: Test A postemergence, kochia; conditions: postemergence, 0 to 100 scale, 0 is no effect, 100 is complete control, approximately 10 days
In short: as §1

rice (Oryza sativa) = assay: Test B flooded paddy test, rice; conditions: 250 g ai/ha, Flood; visual rating after 13 to 15 days; scale 0 to 100, 0 is no effect, 100 is complete control
In short: as §2

[16] = test system: ryegrass, Italian (Italian ryegrass, Lolium multiflorum); assay: Test A preemergence, Italian ryegrass; conditions: Preemergence, 0 to 100 scale (0 no effect, 100 complete control)
In short: as §1

[17] = test system: wheat (Triticum aestivum); assay: Test A postemergence, wheat; conditions: postemergence, 0 to 100 scale, 0 is no effect, 100 is complete control, approximately 10 days
In short: as §1

[18] = test system: blackgrass (Alopecurus myosuroides); assay: Test A postemergence, blackgrass; conditions: postemergence, 0 to 100 scale, 0 is no effect, 100 is complete control, approximately 10 days
In short: as §1

Structure (SMILES) | Plant response rating, Corn (corn (Zea mays); 125 g ai/ha) | Plant response rating, Barnyardgrass ([1]; 125 g ai/ha) | Plant response rating, Pigweed ([2]; 125 g ai/ha) | Plant response rating, Ryegrass, Italian ([3]; 125 g ai/ha) | Plant response rating, Kochia (kochia (Kochia scoparia) [4]; 125 g ai/ha) | Plant response rating, Barnyardgrass ([5]; 125 g ai/ha) | Plant response rating, Barnyardgrass [6] | Plant response rating, Ragweed ([7]; 125 g ai/ha) | Plant response rating, Foxtail, Giant ([8]; 125 g ai/ha) | Plant response rating, Ragweed ([9]; 125 g ai/ha) | Plant response rating, Pigweed ([10]; 125 g ai/ha) | Plant response rating, Foxtail, Giant ([11]; 125 g ai/ha) | Plant response rating, Ducksalad [12] | Plant response rating, Galium ([13]; 125 g ai/ha) | Plant response rating, Sedge, Umbrella [14] | Plant response rating, Kochia (kochia (Kochia scoparia) [15]; 125 g ai/ha) | Plant response rating, Rice (rice (Oryza sativa)) | Plant response rating, Ryegrass, Italian ([16]; 125 g ai/ha) | Plant response rating, Wheat ([17]; 125 g ai/ha) | Plant response rating, Blackgrass ([18]; 125 g ai/ha) | other results
N#Cc1cccc(Oc2ncc(F)cn2)c1OCCC(F)(F)F [Compound 40] | 20 | 50 | 90 | 10 | 100 | 80 | 0 | 10 | 80 | 90 | 100 | 90 | 75 | 60 | 70 | 70 | 0 | 10 | 0 | 30 | Plant response rating, Corn (corn (Zea mays); 31 g ai/ha): 10; Plant response rating, Barnyardgrass ([1]; 31 g ai/ha): 0; Plant response rating, Pigweed ([2]; 31 g ai/ha): 80; Plant response rating, Ryegrass, Italian ([3]; 31 g ai/ha): 0; Plant response rating, Kochia (kochia (Kochia scoparia) [4]; 31 g ai/ha): 90; Plant response rating, Barnyardgrass ([5]; 31 g ai/ha): 30; Plant response rating, Ragweed ([7]; 31 g ai/ha): 0; Plant response rating, Foxtail, Giant ([8]; 31 g ai/ha): 10; Plant response rating, Ragweed ([9]; 31 g ai/ha): 10; Plant response rating, Pigweed ([10]; 31 g ai/ha): 100; Plant response rating, Foxtail, Giant ([11]; 31 g ai/ha): 70; Plant response rating, Galium ([13]; 31 g ai/ha): 20; Plant response rating, Kochia (kochia (Kochia scoparia) [15]; 31 g ai/ha): 50; Plant response rating, Ryegrass, Italian ([16]; 31 g ai/ha): 0; Plant response rating, Wheat ([17]; 31 g ai/ha): 0; Plant response rating, Blackgrass ([18]; 31 g ai/ha): 10
FC(F)(F)/C=C/COc1c(Cl)cccc1Oc1ncc(Cl)cn1 [Compound 47] | 20 | 40 | 90 | 10 | 80 | 50 | 0 | 10 | 70 | 0 | 60 | 100 | 85 | 80 | 100 | 90 | 0 | 10 | 0 | 50 | Plant response rating, Corn (corn (Zea mays); 31 g ai/ha): 10; Plant response rating, Barnyardgrass ([1]; 31 g ai/ha): 10; Plant response rating, Pigweed ([2]; 31 g ai/ha): 20; Plant response rating, Ryegrass, Italian ([3]; 31 g ai/ha): 0; Plant response rating, Kochia (kochia (Kochia scoparia) [4]; 31 g ai/ha): 0; Plant response rating, Barnyardgrass ([5]; 31 g ai/ha): 10; Plant response rating, Ragweed ([7]; 31 g ai/ha): 0; Plant response rating, Foxtail, Giant ([8]; 31 g ai/ha): 20; Plant response rating, Ragweed ([9]; 31 g ai/ha): 0; Plant response rating, Pigweed ([10]; 31 g ai/ha): 0; Plant response rating, Foxtail, Giant ([11]; 31 g ai/ha): 30; Plant response rating, Galium ([13]; 31 g ai/ha): 50; Plant response rating, Kochia (kochia (Kochia scoparia) [15]; 31 g ai/ha): 50; Plant response rating, Ryegrass, Italian ([16]; 31 g ai/ha): 0; Plant response rating, Wheat ([17]; 31 g ai/ha): 0; Plant response rating, Blackgrass ([18]; 31 g ai/ha): 10
N#Cc1cccc(Oc2ncc(Cl)cn2)c1OCc1ccccc1Cl [Compound 2] | 0 | 0 | 0 | 0 | 0 | 0 | 0 | 0 | 0 | 0 | 0 | 10 | 0 | 20 | 0 | 30 | 0 | 0 | 0 | 0 | Plant response rating, Corn (corn (Zea mays); 500 g ai/ha): 30; Plant response rating, Barnyardgrass ([1]; 500 g ai/ha): 10; Plant response rating, Pigweed ([2]; 500 g ai/ha): 10; Plant response rating, Ryegrass, Italian ([3]; 500 g ai/ha): 0; Plant response rating, Kochia (kochia (Kochia scoparia) [4]; 500 g ai/ha): 0; Plant response rating, Barnyardgrass ([5]; 500 g ai/ha): 10; Plant response rating, Ragweed ([7]; 500 g ai/ha): 10; Plant response rating, Foxtail, Giant ([8]; 500 g ai/ha): 10; Plant response rating, Ragweed ([9]; 500 g ai/ha): 0; Plant response rating, Pigweed ([10]; 500 g ai/ha): 20; Plant response rating, Foxtail, Giant ([11]; 500 g ai/ha): 70; Plant response rating, Galium ([13]; 500 g ai/ha): 50; Plant response rating, Kochia (kochia (Kochia scoparia) [15]; 500 g ai/ha): 40; Plant response rating, Ryegrass, Italian ([16]; 500 g ai/ha): 0; Plant response rating, Wheat ([17]; 500 g ai/ha): 0; Plant response rating, Blackgrass ([18]; 500 g ai/ha): 0
N#Cc1cccc(Oc2ncc(Cl)cn2)c1OCc1ccc(Cl)cn1 [Compound 6] | 20 | 10 | 80 | 0 | 0 | 0 | 0 | 0 | 10 | 0 | 90 | 20 | 0 | 40 | 0 | 60 | 0 | 0 | 0 | 10 | Plant response rating, Corn (corn (Zea mays); 31 g ai/ha): 10; Plant response rating, Barnyardgrass ([1]; 31 g ai/ha): 0; Plant response rating, Pigweed ([2]; 31 g ai/ha): 20; Plant response rating, Ryegrass, Italian ([3]; 31 g ai/ha): 0; Plant response rating, Kochia (kochia (Kochia scoparia) [4]; 31 g ai/ha): 0; Plant response rating, Barnyardgrass ([5]; 31 g ai/ha): 0; Plant response rating, Ragweed ([7]; 31 g ai/ha): 0; Plant response rating, Foxtail, Giant ([8]; 31 g ai/ha): 0; Plant response rating, Ragweed ([9]; 31 g ai/ha): 0; Plant response rating, Pigweed ([10]; 31 g ai/ha): 10; Plant response rating, Foxtail, Giant ([11]; 31 g ai/ha): 0; Plant response rating, Galium ([13]; 31 g ai/ha): 30; Plant response rating, Kochia (kochia (Kochia scoparia) [15]; 31 g ai/ha): 10; Plant response rating, Ryegrass, Italian ([16]; 31 g ai/ha): 0; Plant response rating, Wheat ([17]; 31 g ai/ha): 0; Plant response rating, Blackgrass ([18]; 31 g ai/ha): 0
Fc1cccc(Oc2ncc(Cl)cn2)c1OC/C=C/C(F)(F)F [Compound 25] | 10 | 40 | 50 | 0 | 30 | 90 | 0 | 0 | 30 | 0 | 100 | 100 | 100 | 50 | 75 | 90 | 0 | 60 | 0 | 20 | Plant response rating, Corn (corn (Zea mays); 500 g ai/ha): 20; Plant response rating, Barnyardgrass ([1]; 500 g ai/ha): 90; Plant response rating, Pigweed ([2]; 500 g ai/ha): 70; Plant response rating, Ryegrass, Italian ([3]; 500 g ai/ha): 70; Plant response rating, Kochia (kochia (Kochia scoparia) [4]; 500 g ai/ha): 100; Plant response rating, Barnyardgrass ([5]; 500 g ai/ha): 100; Plant response rating, Ragweed ([7]; 500 g ai/ha): 0; Plant response rating, Foxtail, Giant ([8]; 500 g ai/ha): 80; Plant response rating, Ragweed ([9]; 500 g ai/ha): 20; Plant response rating, Pigweed ([10]; 500 g ai/ha): 100; Plant response rating, Foxtail, Giant ([11]; 500 g ai/ha): 100; Plant response rating, Galium ([13]; 500 g ai/ha): 100; Plant response rating, Kochia (kochia (Kochia scoparia) [15]; 500 g ai/ha): 100; Plant response rating, Ryegrass, Italian ([16]; 500 g ai/ha): 100; Plant response rating, Wheat ([17]; 500 g ai/ha): 20; Plant response rating, Blackgrass ([18]; 500 g ai/ha): 80
